Results on 1 molecule are retold here after US20220288058A1, “COMBINATION THERAPY USING A MALT1 INHIBITOR AND A BTK INHIBITOR” (Janssen Pharmaceutica NV, priority 2021, published 2022).

What is called half-life is how long it takes for the measured level to halve.

Entries after “also recorded” stand apart in the source; their conditions may differ.

One series relates to JEKO-1. Nature of the series: Inhibition of MCL cancer cell proliferation (CellTiter-Glo), Compound A and Compound B mono and combination. The format is cell-based. Particulars: monotherapy, 4 days. On the procedure:
(§1) Compound A and Compound B were used throughout the in vitro and cellular assessment of activity. All small molecules were prepared as 100% dimethyl sulfoxide (DMSO) stocks as indicated. A final concentration of 0.25% DMSO was used as a control. High Control=Cells+DMSO 0.25%.
(§2) A panel of 4 B-cell lymphoma lines was treated with different doses of both compounds. The following ABC-DLBCL cell lines were tested: OCI-Ly10; TMD8; OCI-Ly3; and HBL1. The cell lines were grown in 96-well plates and treated with a matrix of seven scalar concentrations of Compound A ([…]) and six scalar concentrations of Compound B ([…]) and all combinations thereof. This checkerboard design was repeated on up to four separate plates. The final concentration of DMSO was 0.25%. After an incubation of four days at 37° C. and 5% CO2, cell viability was determined by adding CellTiter-Glo®. Luminescence was read on an Envision device and readouts were used to calculate potential combination effects.
(§3) A panel of 4 MCL cell lines were treated with different doses for both compounds (using the same dosing as above). The following MCL cell lines were tested: REC-1; JEKO-1; MINO; and MAVER-1.
(§4) For the assessment of combination effects on DLBCL or MCL cancer cell proliferation, the observed combination effects were evaluated using the public available BIGL (Biochemically Intuitive Generalized Loewe Model) R package which measures the evidence in the data, in the presence of variability, against certain null models derived from the monotherapies. In first step, monotherapies were fitted with 4PL models with extra constraint of common baseline between two agents. When no activity was observed, a straight line was fitted through the monotherapy data. In a second step, hypothesis tests at 5% significance level were performed which basically contrast the observed readouts of the combination experiments with those predicted from the null model derived from the monotherapies where both HSA (Highest Single Agent) 17 and generalized Loewe18 were assessed for these studies.
In general terms: In ATP-based viability assays light output follows the ATP content of the culture.

The subject of the next series is MAVER-1. The description is as above. It is filed as cell-based. Particulars: monotherapy, 4 days. On the procedure: as §1, §2, §3, §4
For the next series, the system named is MINO. Described as above. To be noted: monotherapy, 4 days. The format is cell-based. On the procedure:
as §1, §2, §3, §4

Another series can be described thus: Pharmacokinetics in mice. The format is in vivo, mouse.
In another series the target is T1, BTK protein (Homo sapiens, UniProt Q06187).
T1 construct: measuring the amount of free BTK protein in OCI-LY10 DLBCL tumor lysates of mice treated with various dosing concentrations of Compound B; endogenous in cells; host or cells: OCI-LY10 ABC-DLBCL xenograft tumours grown SC in female NSG mice (tumour lysates)
Nature of the series: Study 1: BTK occupancy assay (ELISA) in OCI-LY10 DLBCL tumor lysates of NSG mice. The format is in vivo, mouse. The protocol: In Study 1, 5×10^6 OCI-LY10 cells in PBS containing 50% Matrigel™ were injected subcutaneously (SC) into the right hind flank of female NSG mice. Tumor growth was measured over time and once tumors reached volumes of approximately 525 mm^3, mice were randomized in groups of 15 and treated orally with a single dose of Compound B according to treatment schedule (see Table 4). Blood was collected serially by mandibular vein sampling from 5 animals per time point per group to determine circulating compound concentration and IL10 levels at 2, 4, 8, 12, 16, and 24 hours post single dose. Blood was harvested in EDTA and plasma was obtained via centrifugation at 3000 rpm for 10 minutes. In addition, tumor samples were harvested from 5 animals per timepoint per treatment group for BTK occupancy studies at 4, 12, and 24 hours post single dose.
Compound B is a covalent orally bioavailable inhibitor binding BTK irreversibly, allowing us to evaluate the duration of signaling shutdown and occupancy of BTK protein after compound administration considering compound binding to BTK as well as synthesis rate of new BTK protein. Target engagement was determined by measuring the amount of free BTK protein in OCI-LY10 DLBCL tumor lysates of mice treated with various dosing concentrations of Compound B using a BTK occupancy assay (ELISA assay format). A covalent BTK inhibitor probe, chemically linked to biotin (CNX-500 Probe), was incubated in PBS/BT (PBS+1% BSA+0.05% tween-20) with tumor lysate for 1 hour at 28° C. Incubated BTK standards and samples were transferred to a streptavidin-coated 96-well plates and mixed while shaking for 30 minutes at RT. The BTK-antibody was then added and incubated overnight at 4° C. After washing, goat anti-mouse-HRP was added and incubated for 1 hour at RT. The ELISA was developed with addition of tetramethyl benzidine (TMB) followed by sulfuric acid (stop solution) and read at optical density 450 nm on Envision device.
(In general: An ELISA detects its analyte on a solid surface through an enzyme-linked reagent.)

Series [1] can be described thus: Body weight and tolerability monitoring of OCI-LY10 tumor bearing NSG mice (Studies 2-4). The format is in vivo. The protocol: Subsequently animal body weight and tumor volume was monitored two to three times per week. Animals were monitored daily for clinical signs related to either compound toxicity or tumor burden (i.e., hind limb paralysis, lethargy, dyspnea, etc.).
Body weight changes of individual mice were calculated using the formula: ([W−W0]/W0)×100, where “W” represents mean body weight on a particular day, and “W0” represents body weight at initiation of treatment. Body weight was graphed as mean body weight change±SEM.

T1 sequence (Q06187 whole entry): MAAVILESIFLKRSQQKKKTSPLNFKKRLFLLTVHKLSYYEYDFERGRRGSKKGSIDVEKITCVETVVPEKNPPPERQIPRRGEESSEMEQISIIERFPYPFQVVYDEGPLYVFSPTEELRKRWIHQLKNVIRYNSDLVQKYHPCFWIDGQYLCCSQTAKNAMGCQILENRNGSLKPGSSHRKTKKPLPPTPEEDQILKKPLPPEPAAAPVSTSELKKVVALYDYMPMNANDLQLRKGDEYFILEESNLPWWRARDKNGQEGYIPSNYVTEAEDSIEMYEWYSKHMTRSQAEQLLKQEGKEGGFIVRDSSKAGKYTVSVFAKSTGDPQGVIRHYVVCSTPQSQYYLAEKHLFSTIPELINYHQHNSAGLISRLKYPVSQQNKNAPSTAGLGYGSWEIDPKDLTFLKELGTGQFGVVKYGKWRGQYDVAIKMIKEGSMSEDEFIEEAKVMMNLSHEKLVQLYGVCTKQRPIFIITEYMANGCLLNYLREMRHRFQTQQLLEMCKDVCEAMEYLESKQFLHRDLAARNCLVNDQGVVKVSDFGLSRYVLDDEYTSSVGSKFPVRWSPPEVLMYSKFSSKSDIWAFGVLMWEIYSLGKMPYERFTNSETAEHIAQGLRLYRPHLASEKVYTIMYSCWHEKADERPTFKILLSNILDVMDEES

Regarding `C=CC(=O)N[C@H]1CCC[C@H]1NC(=O)c1sc2nccc3c2c1NC(=O)N3c1cnc(CC(C)C)cc1C` (atropisomer, axis not shown) [Compound B, N-((1R,2S)-2-acrylamidocyclopentyl)-5-(S)-(6-isobutyl-4-methylpyridin-3-yl)-4-oxo-4,5-dihydro-3H-1-thia-3,5,8-triazaacenaphthylene-2-carboxamide], the proliferation inhibition is about 25% in the series with JEKO-1, “no to minor inhibition of proliferation” in the series on MAVER-1 and about 30% with MINO. In “Pharmacokinetics in mice” (NSG, mouse, in vivo, NSG mice, read-out: half-life (converted)), the half-life is 42 min. The clearance entry in the series “Pharmacokinetics in mice” (mice) is “moderate clearance”. In addition, the “BTK occupancy in tumor lysates” value at BTK protein (1 mg/kg single dose) and at BTK protein (3 mg/kg single dose) was “No BTK occupancy” in each case. In addition, at BTK protein (Compound B at 1, 3, 10, 30, or 100 mg/kg single dose, maximal at ≥ 30 mg/kg, sustained through 24 hours), the “decrease in unoccupied (free) BTK in tumors” value is “Dose-and time-dependent”. Besides, the receptor occupancy at 10 mg/kg at BTK protein (OCI-Ly10, 4 hours after dosing) is 54%; on BTK protein (OCI-Ly10, 12 hours) it was 71%; at BTK protein (OCI-Ly10, 24 hours) it was 70%. In addition, the receptor occupancy at 30 mg/kg at BTK protein (OCI-Ly10, 4 hours after dosing) worked out at 90%; at BTK protein (OCI-Ly10, 12 hours) it was 94%; on BTK protein (OCI-Ly10, 24 hours), 91%. Also, the receptor occupancy at 100 mg/kg on BTK protein (OCI-Ly10, 4 hours after dosing) was 95%; on BTK protein (OCI-Ly10, 12 hours), 96%; on BTK protein (OCI-Ly10, 24 hours) it was 85%. For the same molecule, on BTK protein (single dose as low as 30 mg/kg, effects lasting up to 24 hours), the “BTK occupancy in tumors” value is listed as “complete BTK occupancy”. The body weight entry in series [1] (Study 2, 3 weeks of treatment) was “no body weight loss was observed”. Also, in series [1] (Study 3, Compound B 30 mg/kg QD), the “animals found dead or taken off study due to negative clinical signs” value is listed as “one animal”. For the same molecule, in series [1] (Study 3 and Study 4, similar frequencies in vehicle group), the “body weight loss during the 3 weeks of treatment” value was “low level, transient body weight loss; also recorded: low level, transient, body weight loss”. Also, the “animals removed due to reaching the maximum allowed body weight loss of 20%” value in series [1] (Study 4, Compound B 15 mg/kg) is “one each”. The “animals died during the study” value in series [1] (Study 4, Compound B 50 mg/kg) is given as “one animal”. The “tolerability in NSG mice” value in series [1] (all dose levels tested, up to 50 mg/kg BID or 100 mg/kg QD) was “well tolerated”.
